Like-named read-outs stand apart in the source and are kept apart here.
Target: T1, F508delCFTR (Homo sapiens, UniProt P13569, DEL508-508)
T1 construct: expressed in transfected cells; host or cells: CFBE41o- human lung-derived epithelial cells (CFBE4lo-F508delCFTR-HRP), doxycycline-inducible
Assay: Cell Surface Expression-Horse Radish Peroxidase (CSE-HRP) Assay;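 as to Maximum % activity (with co-corrector): co-corrector and positive control are both the same reference corrector at 2 µM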;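 as to Maximum % activity (without co-corrector): percent of the 2 µM on-plate positive control corrector response above DMSO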
Format: cell-based
Details: for Emax / Maximum % activity (with co-corrector): maximum at any tested concentration, normalized to on-plate positive control; for Emax: read-out: Maximum % activity (without co-corrector)

[1] = test compound without co-corrector
[2] = test compound without co-corrector, read-out: EC50 (without co-corrector)
[3] = with co-corrector (2 μM of 3-[(2R,4R)-4-({[1-(2,2-difluoro-1,3-benzodioxol-5-yl)cyclopropyl]carbonyl}amino)-7-methoxy-3,4-dihydro-2H-chromen-2-yl]benzoic acid)
[4] = with co-corrector (2 μM of 3-[(2R,4R)-4-({[1-(2,2-difluoro-1,3-benzodioxol-5-yl)cyclopropyl]carbonyl}amino)-7-methoxy-3,4-dihydro-2H-chromen-2-yl]benzoic acid), read-out: EC50 (with co-corrector)

T1 sequence (P13569 with tags, fused parts or gaps DEL508-508): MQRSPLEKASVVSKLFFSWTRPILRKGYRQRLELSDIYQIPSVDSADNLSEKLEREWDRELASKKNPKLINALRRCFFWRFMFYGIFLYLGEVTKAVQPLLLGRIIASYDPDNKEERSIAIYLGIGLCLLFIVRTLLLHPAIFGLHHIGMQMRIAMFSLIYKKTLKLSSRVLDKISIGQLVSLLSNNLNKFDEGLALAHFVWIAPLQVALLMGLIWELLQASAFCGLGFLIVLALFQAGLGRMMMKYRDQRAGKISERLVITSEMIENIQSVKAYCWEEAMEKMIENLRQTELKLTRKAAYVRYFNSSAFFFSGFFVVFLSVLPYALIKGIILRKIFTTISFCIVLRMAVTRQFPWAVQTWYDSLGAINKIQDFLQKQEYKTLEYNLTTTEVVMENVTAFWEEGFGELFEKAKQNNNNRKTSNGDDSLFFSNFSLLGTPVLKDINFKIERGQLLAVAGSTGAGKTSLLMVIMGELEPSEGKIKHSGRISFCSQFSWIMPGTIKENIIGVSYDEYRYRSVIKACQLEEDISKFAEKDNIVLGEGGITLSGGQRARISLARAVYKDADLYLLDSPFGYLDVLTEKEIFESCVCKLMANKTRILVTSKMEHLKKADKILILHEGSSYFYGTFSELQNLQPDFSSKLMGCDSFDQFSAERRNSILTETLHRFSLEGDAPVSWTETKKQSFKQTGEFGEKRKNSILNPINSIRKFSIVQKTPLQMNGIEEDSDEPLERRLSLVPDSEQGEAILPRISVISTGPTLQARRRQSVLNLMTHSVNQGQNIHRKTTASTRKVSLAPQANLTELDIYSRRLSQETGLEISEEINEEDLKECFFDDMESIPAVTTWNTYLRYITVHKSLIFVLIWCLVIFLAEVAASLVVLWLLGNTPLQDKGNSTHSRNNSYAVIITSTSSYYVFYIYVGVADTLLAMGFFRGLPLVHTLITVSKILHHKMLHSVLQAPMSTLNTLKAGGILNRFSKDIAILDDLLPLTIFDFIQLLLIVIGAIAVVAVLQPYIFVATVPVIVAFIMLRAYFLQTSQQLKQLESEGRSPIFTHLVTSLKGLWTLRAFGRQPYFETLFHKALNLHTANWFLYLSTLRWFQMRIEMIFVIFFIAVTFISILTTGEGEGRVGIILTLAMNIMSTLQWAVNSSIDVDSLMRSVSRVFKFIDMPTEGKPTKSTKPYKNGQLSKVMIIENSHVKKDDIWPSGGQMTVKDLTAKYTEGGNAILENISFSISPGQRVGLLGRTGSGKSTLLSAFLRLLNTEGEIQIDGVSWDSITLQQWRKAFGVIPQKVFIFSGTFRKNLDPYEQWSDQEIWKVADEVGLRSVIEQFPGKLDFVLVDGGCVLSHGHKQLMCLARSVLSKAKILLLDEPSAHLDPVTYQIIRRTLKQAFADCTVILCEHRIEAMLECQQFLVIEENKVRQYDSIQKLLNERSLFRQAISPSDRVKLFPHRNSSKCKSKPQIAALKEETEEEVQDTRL

Row | Structure (SMILES) | Emax [1] [%] | EC50 [2] [nM] | Maximum % activity (with co-corrector) [3] | EC50 [4] [nM]
1 | COc1nnc(C2CCC2)cc1CN[C@H]1[C@H](C(C)(C)C)[C@@H](C(=O)O)N(C(=O)C2CCCCC2)[C@H]1c1ccccc1 [II-496] | < 100 | 1000 to 10000 | ++ (≥150 and <350) | 1000 to 10000
2 | COc1ccc(C(C)(C)C)cc1CN[C@H]1[C@H](C(C)(C)C)[C@@H](C(=O)O)N(C(=O)C2(c3cccc(Cl)c3)COC2)[C@H]1c1ccccc1 [II-497] | < 100 | 1000 to 10000 | ++ (≥150 and <350) | 1000 to 10000
3 | COc1ccc(C(C)(C)C)cc1CN[C@H]1[C@H](C(C)(C)C)[C@@H](C(=O)O)N(C(=O)C23CC(F)(C2)C3)[C@H]1c1ccccc1 [II-498] | 100 to 200 | 1000 to 10000 | +++ (≥350) | 1000 to 10000
4 | CC(C)(C)[C@H]1[C@H](NCC2(c3ccc4c(c3)OC(F)(F)O4)CC2)[C@H](c2ccccc2)N(C(=O)C2CCCCC2)[C@@H]1C(=O)O [II-499] | 100 to 200 | 1000 to 10000 | +++ (≥350) | 1000 to 10000
5 | COc1ccc(C23CC(C2)C3)cc1CN[C@H]1[C@H](C(C)(C)OC)[C@@H](C(=O)O)N(C(=O)OC(C)C)[C@H]1c1cccnc1N(C)C [II-501] | > 200 | 1000 to 10000 | +++ (≥350) | 1000 to 10000
6 | Cc1cc(C(F)(F)F)cc(N[C@H]2[C@H](C(C)(C)C)[C@@H](C(=O)O)N(C(=O)C3CCCCC3C(F)(F)F)[C@H]2c2cccnc2N(C)C)n1 (some centres unmarked) [II-502] | < 100 | 1000 to 10000 | ++ (≥150 and <350) | 1000 to 10000
7 | Cc1cc(C(F)(F)F)cc(N[C@H]2[C@H](C(C)(C)C)[C@@H](C(=O)O)N(C(=O)C3CCCC(F)(F)C3)[C@H]2c2cccnc2N(C)C)n1 (some centres unmarked) [II-503] | < 100 | 1000 to 10000 | +++ (≥350) | 1000 to 10000
8 | COc1cc(C(F)(F)F)ccc1CN[C@H]1[C@H](C(C)(C)C)[C@@H](C(=O)O)N(C(=O)C2CCCC(F)(F)C2)[C@H]1c1ccccc1 (some centres unmarked) [II-508] | 100 to 200 | 1000 to 10000 | +++ (≥350) | < 1000
9 | COc1ccc(C23CC(C2)C3)cc1CN[C@H]1[C@H](C(C)(C)C)[C@@H](C(=O)O)N(C(=O)[C@H]2CCCC(F)(F)C2)[C@H]1c1ccccc1 [II-509] | > 200 | < 1000 | +++ (≥350) | < 1000
10 | COc1ncc(C(F)(F)F)cc1CN[C@H]1[C@H](C(C)(C)C)[C@@H](C(=O)O)N(C(=O)OC(C)C)[C@H]1c1cccnc1N(C)C [II-510] | > 200 | 1000 to 10000 | +++ (≥350) | 1000 to 10000
11 | COc1ccc(C(C)(C)C)cc1CN[C@H]1[C@H](C(C)(C)C)[C@@H](C(=O)O)N(C(=O)OC(C)C)[C@H]1c1cccnc1OC [II-511] | 100 to 200 | 1000 to 10000 | +++ (≥350) | 1000 to 10000
12 | COc1ncc(C(F)(F)F)cc1CN[C@H]1[C@H](C(C)(C)C)[C@@H](C(=O)O)N(C(=O)OC(C)C)[C@H]1c1cccnc1OC [II-512] | 100 to 200 | 1000 to 10000 | +++ (≥350) | 1000 to 10000
13 | COc1cc(C(F)(F)F)ccc1CN[C@H]1[C@H](C(C)(C)C)[C@@H](C(=O)O)N(C(=O)OC(C)C)[C@H]1c1cccnc1OC [II-513] | 100 to 200 | 1000 to 10000 | +++ (≥350) | 1000 to 10000
14 | COc1cc(C(F)(F)F)ccc1CN[C@H]1[C@H](C(C)(C)C)[C@@H](C(=O)O)N(C(=O)OC(C)C)[C@H]1c1cccnc1N(C)C [II-514] | 100 to 200 | 1000 to 10000 | +++ (≥350) | 1000 to 10000
15 | COc1ccc(C(C)(C)C)cc1CN[C@H]1[C@H](C(C)(C)C)[C@@H](C(=O)O)N(C(=O)[C@@H]2CCC[C@H](O)C2)[C@H]1c1ccccc1 [II-515] | 100 to 200 | 1000 to 10000 | +++ (≥350) | 1000 to 10000
16 | COc1ccc(C23CC(C2)C3)cc1CN[C@H]1[C@H](C(C)(C)C)[C@@H](C(=O)O)N(C(=O)[C@H]2CCC[C@H](OC)C2)[C@H]1c1ccccc1 [II-516] | > 200 | 1000 to 10000 | +++ (≥350) | < 1000
17 | COc1ccc(C23CC(C2)C3)cc1CN[C@H]1[C@H](C(C)(C)C)[C@@H](C(=O)O)N(C(=O)C2CCCCC2)[C@H]1c1ccccc1F [II-517] | > 200 | 1000 to 10000 | +++ (≥350) | < 1000
18 | COc1ncc(C2CCC2)cc1CN[C@H]1[C@H](C(C)(C)C)[C@@H](C(=O)O)N(C(=O)C2C3CCCC32)[C@H]1c1cccnc1N(C)C (some centres unmarked) [II-518] | 100 to 200 | 1000 to 10000 | +++ (≥350) | 1000 to 10000
19 | COc1nc(C(C)(C)C)ccc1CN[C@H]1[C@H](C(C)(C)C)[C@@H](C(=O)O)N(C(=O)OC(C)C)[C@H]1c1ccccc1F [II-519] | 100 to 200 | 1000 to 10000 | +++ (≥350) | < 1000
20 | COc1ccc(C23CC(C2)C3)cc1CN[C@H]1[C@H](C(C)(C)C)[C@@H](C(=O)O)N(C(=O)C2CCCCC2)[C@H]1c1cccnc1N(C)C [II-520] | > 200 | 1000 to 10000 | +++ (≥350) | < 1000
21 | COc1nc(C(C)(C)C)ccc1CN[C@H]1[C@H](C(C)(C)C)[C@@H](C(=O)O)N(C(=O)[C@H]2CCCCO2)[C@H]1c1cccnc1N(C)C [II-521] | < 100 | 1000 to 10000 | ++ (≥150 and <350) | 1000 to 10000
22 | COc1ccc(OC(F)(F)F)cc1CN[C@H]1[C@H](C(C)(C)C)[C@@H](C(=O)O)N(C(=O)OC(C)C)[C@H]1c1ccccc1 [II-523] | > 200 | 1000 to 10000 | +++ (≥350) | 1000 to 10000
23 | COc1ccc(OC(F)(F)F)cc1CN[C@H]1[C@H](C(C)(C)C)[C@@H](C(=O)O)N(C(=O)C2CCCCC2)[C@H]1c1cccnc1OC [II-524] | 100 to 200 | 1000 to 10000 | +++ (≥350) | 1000 to 10000
24 | COc1nc(C(C)(C)C)ccc1CN[C@H]1[C@H](C(C)(C)C)[C@@H](C(=O)O)N(C(=O)C2CCCCC2)[C@H]1c1ccccc1F [II-525] | 100 to 200 | 1000 to 10000 | +++ (≥350) | 1000 to 10000
25 | COc1ccc(C(C)(C)C)cc1CN[C@H]1[C@H](C(C)(C)C)[C@@H](C(=O)O)N(C(=O)[C@@H]2CCC[C@](C)(O)C2)[C@H]1c1ccccc1 [II-526] | 100 to 200 | 1000 to 10000 | +++ (≥350) | 1000 to 10000
26 | COc1ccc(SC(F)(F)F)cc1CN[C@H]1[C@H](C(C)(C)C)[C@@H](C(=O)O)N(C(=O)C2CCCCC2)[C@H]1c1cccnc1OC [II-527] | 100 to 200 | 1000 to 10000 | +++ (≥350) | 1000 to 10000
27 | COc1nc(C(C)(C)C)ccc1CN[C@H]1[C@H](C(C)(C)C)[C@@H](C(=O)O)N(C(=O)C2CCCCC2)[C@H]1c1ccccc1OC(F)F [II-528] | 100 to 200 | 1000 to 10000 | +++ (≥350) | 1000 to 10000
28 | COc1ncc(C2CCC2)cc1CN[C@H]1[C@H](C(C)(C)C)[C@@H](C(=O)O)N(C(=O)[C@@H]2CCCCO2)[C@H]1c1ccccc1F [II-531] | 100 to 200 | 1000 to 10000 | +++ (≥350) | 1000 to 10000
29 | COc1ncc(C2CCC2)cc1CN[C@H]1[C@H](C(C)(C)C)[C@@H](C(=O)O)N(C(=O)[C@@H]2CCC[C@@H](F)C2)[C@H]1c1ccccc1 [II-532] | > 200 | 1000 to 10000 | +++ (≥350) | < 1000

Reference: patent US20180099931A1 (AbbVie S.à.r.l., priority 2016, published 2018)
